Experimental data taken from patent publication US6218430A, “Vitamin D3 mimics” (Ligand Pharmaceuticals Incorporated, priority 1998, dated 2001).
“Also recorded” adds a separate entry of the source. Read-outs that look alike come from different tables or passages of the source.

Assays:
[1] = system: SK-BR-3 breast cancer cells; experiment: Breast cancer cell growth inhibition (BrdU); assay type: cell-based; conditions: Homo sapiens, SK-BR-3, 72 h, BrdU incorporation, 3-day assay
Description: (§1) Cancer cell growth inhibition and analysis. SK-BR-3 human breast cancer cells (ATCC) and LNCaP human prostate cancer cells (ATCC) were plated in 96-well, flat-bottomed microtiter plates (CoStar) with 50 μL serum-containing media/well. […] Cell plating numbers (cells/well) were as follows: SK-BR-3, 3000 (3-day assays); LNCAP, 1000 (4-day assays). Cell plating number was determined by growth rate of each cell line and duration of the assay. […] Cells were allowed to adhere for 24 h prior to compound addition as follows:
(§2) Ten-fold serial dilutions were performed with changing of pipette tips between each dilution. Diluted compounds were then added to the cells (50 μL/well) to final concentrations of 1×10^-5 -1×10^-11 M (1% ethanol) in triplicate. […] BrdU (5-bromo-2'-deoxyuridine) incorporation was analyzed as a measure of DNA replication (Cell Proliferation ELISA kit, Boehringer) and absorbance was measured at 450 nm.
(§3) One row of wells contained media only and these absorbance values were averaged as background and then subtracted from absorbance values from each individual well containing cells. The average values were then determined for each triplicate and plotted vs ligand concentration. The average vehicle (1% ethanol) value was determined, less the background average. […] Potency (EC50) was determined as the concentration of compound that elicited half-maximal response.

[2] = system: HL60 cells; experiment: Leukemic cell differentiation (NBT and CD14); assay type: cell-based; conditions: Homo sapiens, HL-60, 120 h; NBT and CD14 assays; differentiation into macrophages/monocytes; 5 days
Description: Leukemic cell differentiation. […] Ligands were added in ethanol vehicle (1%) at various concentrations for 5 days without changing the media. On the fifth day, cells were harvested and assayed for markers of differentiation. […] Cells that bioreduce the dye turn blue-black and represent differentiated cells, and are counted. Undifferentiated cells are clear and are also counted; percent differentiated cells are then determined from the two numbers.

[3] = In vivo calcium potential: serum calcium (colorimetric); set-up: species or system mouse (Balb/c mice); conditions: oral gavage
Description: (§4) In vivo gene regulation and calcium potential. Balb/c mice (male 6-8 weeks old, ~20 g) were fed a vitamin D deficient, calcium replete diet (Purina Mills) for 7-14 days prior to receiving treatment with compounds. Animals were housed under normal lighting. Compounds were administered in sesame oil vehicle with 4% ethanol by oral gavage (0.1 mL dose volume). […] On the final day of dosing, 4-6 h after the final dose, animals were euthanized, the kidneys removed and blood collected. Serum was prepared from the blood and calcium determination performed by colorimetric assay (Sigma). […] 15-20 μg total RNA was utilized in Northern blot analysis using rat 24(OH)ase probe; GAPDH probe was used to normalize for RNA loading, as described previously (Id). Quantitation was by PhosphorImager analysis.

[4] = system: LNCaP prostate cancer cells; experiment: Prostate cancer cell growth inhibition (BrdU); assay type: cell-based; conditions: Homo sapiens, 96 h, BrdU incorporation, 4-day assay
Description: as §1, §2, §3

[5] = system: Normal human epidermal keratinocytes (NHEK); experiment: Keratinocyte growth inhibition (BrdU); assay type: cell-based; conditions: 96 h, BrdU incorporation, day 4
Description: as §2, §3
Keratinocyte growth inhibition. Normal human epidermal keratinocytes (NHEK) were grown according to vendor specifications (Clonetics, San Diego). BrdU assays were performed as above except that cells were plated at 200 cells per well (96-well plates) and fresh media with ligands were added on day 0 and day 2; BrdU assays were run on day 4.

[6] = biological target: T1, human VDR (Homo sapiens, UniProt P11473); experiment: Cotransactivation (CTF) in Hep G2 cells, VDRE-luciferase reporter; assay type: cell-based; set-up: expressed in transfected cells; host or cells: Hep G2 (human hepatoma, ATCC)
T1 sequence (P11473 1-427): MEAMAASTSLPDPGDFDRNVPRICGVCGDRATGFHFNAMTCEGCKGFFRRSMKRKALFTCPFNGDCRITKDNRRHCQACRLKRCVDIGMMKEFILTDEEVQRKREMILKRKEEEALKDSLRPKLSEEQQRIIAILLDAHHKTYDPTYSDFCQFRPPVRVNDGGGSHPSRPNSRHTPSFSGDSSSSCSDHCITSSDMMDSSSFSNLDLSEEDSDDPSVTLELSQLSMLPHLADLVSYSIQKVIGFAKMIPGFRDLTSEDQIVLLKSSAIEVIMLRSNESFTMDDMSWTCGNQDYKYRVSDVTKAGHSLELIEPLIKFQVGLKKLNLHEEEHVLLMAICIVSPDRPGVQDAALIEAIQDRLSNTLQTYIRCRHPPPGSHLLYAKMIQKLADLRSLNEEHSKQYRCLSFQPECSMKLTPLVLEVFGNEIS
Description: Cotransactivation properties. […] Reporter and receptor containing vectors were transfected along with carrier DNA and β-galactosidase internal control plasmid as previously described except that Hep G2 cells were used (Id). Briefly, transfections were performed in triplicate in 96-well gelatin-coated plates with a total of 20 μg/mL DNA (0.5 μg receptor expression vector, 5 μg reported plasmid, 5 μg β-galactosidase plasmid, and pGEM carrier DNA to 20 μg) of calcium phosphate-HEPES transfection solution. […] Luciferase values were normalized with β-galactosidase values to control for variable transfection efficiencies.

[7] = system: LNCaP tumor; experiment: In vivo efficacy: LNCaP tumor growth in nude mice; set-up: species or system LNCaP human prostate cancer cells in nude mice
Description: (§5) In vivo efficacy. Nude mice (6 weeks old) were housed under normal light and fed a vitamin D deficient, calcium replete diet (Purina Mills) for 7-10 days prior to injection with LNCaP cells. Tumors were allowed to grow 2-4 weeks prior to dosing. Compounds or vehicle were administered in sesame oil by oral gavage (0.1 mL dose volume). Dosing was daily for the extent of the study. Tumor measurements were taken on days 10 and 15. Animals were then euthanized, and kidneys and blood retrieved. Serum calcium measurements were taken from the final bleed and an intermediate bleed on day 10. […] Average animal weight change per group was as follows: Vehicle, -7.2%; Compound 4 (3 mg/kg), -2.1%; Compound 4 (10 mg/kg), -8.9%.

[8] = biological target: serum DBP; experiment: Serum DBP binding, rat or human serum, species not given; conditions: rat (r) or human (h) serum DBP, not marked (r)/(h); competition with [3H]-25(OH)D3
Description: Serum DBP-binding. DPB competition binding assays were performed by a literature method (Dusso et al. 1991). The source of DBP was either human serum (Scantibodies) or rat serum (Gibco-BRL) diluted 1:10,000 in sodium phosphate buffer (pH 7.4). Sera were incubated for 2 h at 4° C. with 2 nM [^3 H]-25(OH)D3 (Amersham) with and withoun unlabeled 25(OH)D3 or 1,25(OH)2D3 (0.01 nM-1 μM), or unlabeled vitamin D mimic compounds (10 nM-10 μM). Bound ligand was separated from unbound ligand with Dextran-coated charcoal in gelatin-phosphate buffer.

[9] = Animal weight change in LNCaP tumor-bearing nude mice; assay type: in vivo; conditions: vehicle -7.2%
Description: as §5

[10] = biological target: T1, human VDR; experiment: biochemical
Description: VDR binding. […] Cell extracts from yeast transformants were prepared and full length VDR expression was confirmed by Western blotting. […] Binding buffer contained 10 mM Tris,pH 7.5, 1 mM DTT, and 0.4 M KCl; wash buffer contained 10 mM Tris, 100 mM KCl, and 10 mM CHAPS detergent.

[11] = system: 24(OH)ase; experiment: In vivo gene regulation: kidney 24(OH)ase RNA induction (Northern blot); set-up: species or system mouse (Balb/c mice); conditions: for Relative 24(OH)ase activity: oral gavage, vehicle 1, corrected with GAPDH
Description: as §4

[12] = Serum calcium in LNCaP tumor-bearing nude mice; assay type: in vivo; conditions: 3 mg/kg and 10 mg/kg, days 10 and 15
Description: FIGS. 1A and 1B depict the In vivo efficacy of compound 4 in LNCaP tumor growth inhibition in nude mice without hypercalcemia.
as §5

[13] = cotransfected VDRE-luciferase reporter and human VDR in Hep G2 cells, read-out: CTF EC50

In the case of C=C1/C(=C\C=C2/CCC[C@]3(C)[C@@H]([C@H](C)CCCC(C)(C)O)CC[C@@H]23)C[C@@H](O)C[C@@H]1O [1,25(OH)2 D3, 1,25-dihydroxyvitamin D3, reference compound], the EC50 [1] is reported as 0.008 to 0.01 µM, the EC50 [2] is reported as 0.008 to 0.01 µM and the “Serum Ca2+” value ([3]; 3-day treatment, 15 μg/kg, statistically different than vehicle (p < 0.01)) is reported as > 15 mg/dL. The “Serum Ca2+” value ([3]; 5-day treatment, 2 μg/kg) was 9.7 ± 0.6 mg/dL, the “Serum Ca2+” value ([3]; 5-day treatment, 5 μg/kg, statistically different than vehicle (p < 0.01)) was 10.5 ± 0.6 mg/dL and the EC50 [4] was 0.002 µM. For the same compound, the EC50 [5] was 0.01 to 0.03 µM.

For Cc1cc(C2(c3ccc(OCC(=O)C(C)(C)C)c(C)c3)CCCCC2)ccc1OCC(=O)C(C)(C)C [Compound 4, 1,1-bis[3-methyl-4-(3,3-dimethyl-2-oxobutoxy)phenyl]cyclohexane], the EC50 [1] was 2 µM, the EC50 [6] was 2.2 µM and the “tumor growth rate vs control group” value ([7]; 3 mg/kg and 10 mg/kg oral gavage daily) was “decreased tumor growth rates as compared to the control group”. The “tumor size vs vehicle (FIG. 1A)” value ([7]; 10 and 15 days post dosing) was “smaller”, the IC50 [8] was > 10 µM and the EC50 [2] was 2 µM. The “Serum Ca2+” value ([3]; 3-day treatment, 10 mg/kg) was 9.1 ± 0.5 mg/dL, the “Serum Ca2+” value ([3]; 3-day treatment, 30 mg/kg) was 9.0 ± 0.6 mg/dL and the “Serum Ca2+” value ([3]; 5-day treatment, 10 mg/kg) was 9.1 ± 0.2 mg/dL. For the same compound, the “Serum Ca2+” value ([3]; 5-day treatment, 30 mg/kg) was 10.1 ± 0.5 mg/dL, the “Average animal weight change per group” value ([9]; 3 mg/kg) was -2.1% and the “Average animal weight change per group” value ([9]; 10 mg/kg) was -8.9%. The Ki [10] was > 10 µM, the EC50 [4] was 2 µM and the EC50 [5] was 0.5 µM. The “Ratio 24(OH)ase/Ca2+” value ([11]; 3-day treatment, 10 mg/kg) was 1.48, the “Ratio 24(OH)ase/Ca2+ increase” value ([11]; 3-day treatment, 10 mg/kg) was 16.9 and the “Relative 24(OH)ase activity” value ([11]; 3-day treatment, 10 mg/kg) was 13.5. For the same compound, the “Ratio 24(OH)ase/Ca2+” value ([11]; 3-day treatment, 30 mg/kg) was 1.18, the “Ratio 24(OH)ase/Ca2+ increase” value ([11]; 3-day treatment, 30 mg/kg) was 15.1 and the “Relative 24(OH)ase activity” value ([11]; 3-day treatment, 30 mg/kg) was 10.6. The “Ratio 24(OH)ase/Ca2+” value ([11]; 5-day treatment, 10 mg/kg) was 3.38, the “Ratio 24(OH)ase/Ca2+ increase” value ([11]; 5-day treatment, 10 mg/kg) was 61.6 and the “Relative 24(OH)ase activity” value ([11]; 5-day treatment, 10 mg/kg) was 30.8. For the same compound, the “Ratio 24(OH)ase/Ca2+” value ([11]; 5-day treatment, 30 mg/kg) was 5.31, the “Ratio 24(OH)ase/Ca2+ increase” value ([11]; 5-day treatment, 30 mg/kg) was 35.8 and the “Relative 24(OH)ase activity” value ([11]; 5-day treatment, 30 mg/kg) was 53.7. For the same compound, the “separation of target gene induction from serum calcium” value ([11]; mice, vs 1,25(OH)2 D3) was “greater separation of these effects for 4 than for 1,25(OH)2 D3; also recorded: good separation of target gene regulation from serum calcium elevation” and the “serum calcium levels / hypercalcemia (FIG. 1B)” value [12] was “hypercalcemia was not observed; also recorded: normal serum calcium levels”.

With CCC(CC)(c1ccc(OCC(=O)C(C)(C)C)c(C)c1)c1ccc(OCC(=O)C(C)(C)C)c(C)c1 [Compound 7, 3,3-bis[3-methyl-4-(3,3-dimethyl-2-oxobutoxy)phenyl]pentane] the EC50 [1] was 0.8 µM, the EC50 [6, 13] was 0.6 µM and the IC50 [8] was > 10 µM. The EC50 [2] was 0.8 µM, the “Serum Ca2+” value ([3]; 3-day treatment, 100 μg/kg) was 9.6 ± 0.5 mg/dL and the “Serum Ca2+” value ([3]; 3-day treatment, 500 μg/kg, statistically different than vehicle (p < 0.01)) was 11.5 ± 0.9 mg/dL. For the same compound, the Ki [10] was > 10 µM, the EC50 [4] was 0.3 µM and the EC50 [5] was 0.5 µM. For the same compound, the “Ratio 24(OH)ase/Ca2+” value ([11]; 3-day treatment, 100 μg/kg) was 0.63, the “Ratio 24(OH)ase/Ca2+ increase” value ([11]; 3-day treatment, 100 μg/kg) was 5.17 and the “Relative 24(OH)ase activity” value ([11]; 3-day treatment, 100 μg/kg) was 6.0. The “Ratio 24(OH)ase/Ca2+” value ([11]; 3-day treatment, 500 μg/kg) was 0.52, the “Ratio 24(OH)ase/Ca2+ increase” value ([11]; 3-day treatment, 500 μg/kg) was 1.88 and the “Relative 24(OH)ase activity” value ([11]; 3-day treatment, 500 μg/kg) was 6.0.

In the case of CCC(CC)(c1ccc(OCC(=O)C(C)(C)C)c(C)c1)c1ccc(OCC2CO2)c(C)c1 (stereo not drawn) [Compound 9, 3-[3-methyl-4-(2,3-epoxypropoxy)phenyl]-3-[3-methyl-4-(3,3-dimethyl-2-oxobutoxy)phenyl]pentane], the EC50 [1] is reported as 0.15 µM, the EC50 [6, 13] is reported as 0.06 µM and the IC50 [8] is reported as > 10 µM. The EC50 [2] was 0.15 µM, the Ki [10] was > 10 µM and the EC50 [4] was 0.1 µM. It also gave an EC50 [5] of 0.2 µM.

For CCC(CC)(c1ccc(OCC(=O)C(C)(C)C)c(C)c1)c1ccc(OCC(O)C(C)(C)C)c(C)c1 (stereo not drawn) [Compound 11, 3-[3-methyl-4-(2-hydroxy-3,3-dimethylbutoxy)phenyl]-3-[3-methyl-4-(3,3-dimethyl-2-oxobutoxy)phenyl]pentane], the EC50 [1] was 0.5 µM, the EC50 [6] was 0.4 µM and the IC50 [8] was > 10 µM. The EC50 [2] was 0.4 µM, the Ki [10] was > 10 µM and the EC50 [4] was 0.5 µM.

For CCC(CC)(c1ccc(OCC(O)CO)c(C)c1)c1ccc(OCC(O)C(C)(C)C)c(C)c1 (stereo not drawn) [Compound 13, 3-[3-methyl-4-(2,3-dihydroxypropoxy)phenyl]-3-[3-methyl-4-(2-hydroxy-3,3-dimethylbutoxy)phenyl]pentane], the EC50 [1] was 0.03 to 0.05 µM, the IC50 [8] was > 10 µM and the EC50 [2] was 0.03 to 0.05 µM. For the same compound, the EC50 [4] was 0.02 µM and the EC50 [5] was 0.03 to 0.05 µM.
